According to ChEMBL document CHEMBL4041518, “Novel tacrine-1,2,3-triazole hybrids: In vitro, in vivo biological evaluation and docking study of cholinesterase inhibitors” (Eur J Med Chem, 2017):
Active and inactive are the calls of the source. The calls are words filed in the database; no cut-off is given here.

Key:
[1] = biological target: Acetylcholinesterase (Electrophorus electricus) (UniProt O42275); assay: Potency index, ratio of rivastigmine IC50 to compound IC50 for electric eel AChE
[2] = biological target: Cholinesterase (Equus caballus) (UniProt P81908); assay: Potency index, ratio of rivastigmine IC50 to compound IC50 for equine serum BuChE
Sequence of Cholinesterase (Equus caballus) (P81908 whole entry): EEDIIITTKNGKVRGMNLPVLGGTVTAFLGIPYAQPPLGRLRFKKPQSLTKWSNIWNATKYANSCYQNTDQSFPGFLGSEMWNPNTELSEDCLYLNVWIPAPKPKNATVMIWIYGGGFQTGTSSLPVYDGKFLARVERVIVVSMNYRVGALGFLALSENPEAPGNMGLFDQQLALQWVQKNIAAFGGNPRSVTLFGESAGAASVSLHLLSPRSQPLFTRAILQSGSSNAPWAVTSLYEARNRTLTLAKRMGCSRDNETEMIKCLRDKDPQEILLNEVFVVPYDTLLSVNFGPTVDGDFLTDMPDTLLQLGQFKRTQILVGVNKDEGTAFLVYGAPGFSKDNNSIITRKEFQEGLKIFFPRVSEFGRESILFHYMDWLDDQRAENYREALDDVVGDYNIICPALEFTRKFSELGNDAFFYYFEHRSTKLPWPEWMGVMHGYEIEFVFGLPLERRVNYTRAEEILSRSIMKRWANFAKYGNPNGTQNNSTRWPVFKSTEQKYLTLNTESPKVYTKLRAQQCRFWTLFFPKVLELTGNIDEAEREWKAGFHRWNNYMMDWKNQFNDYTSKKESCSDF

[3] = Antioxidant activity assessed as DPPH radical scavenging activity incubated under dark condition for 30 mins by UV-Visible spectrophotometric method; format: functional
Acetylcholinesterase [4] = biological target: T1, Acetylcholinesterase (Electrophorus electricus, UniProt O42275)
T1 sequence (O42275 whole entry): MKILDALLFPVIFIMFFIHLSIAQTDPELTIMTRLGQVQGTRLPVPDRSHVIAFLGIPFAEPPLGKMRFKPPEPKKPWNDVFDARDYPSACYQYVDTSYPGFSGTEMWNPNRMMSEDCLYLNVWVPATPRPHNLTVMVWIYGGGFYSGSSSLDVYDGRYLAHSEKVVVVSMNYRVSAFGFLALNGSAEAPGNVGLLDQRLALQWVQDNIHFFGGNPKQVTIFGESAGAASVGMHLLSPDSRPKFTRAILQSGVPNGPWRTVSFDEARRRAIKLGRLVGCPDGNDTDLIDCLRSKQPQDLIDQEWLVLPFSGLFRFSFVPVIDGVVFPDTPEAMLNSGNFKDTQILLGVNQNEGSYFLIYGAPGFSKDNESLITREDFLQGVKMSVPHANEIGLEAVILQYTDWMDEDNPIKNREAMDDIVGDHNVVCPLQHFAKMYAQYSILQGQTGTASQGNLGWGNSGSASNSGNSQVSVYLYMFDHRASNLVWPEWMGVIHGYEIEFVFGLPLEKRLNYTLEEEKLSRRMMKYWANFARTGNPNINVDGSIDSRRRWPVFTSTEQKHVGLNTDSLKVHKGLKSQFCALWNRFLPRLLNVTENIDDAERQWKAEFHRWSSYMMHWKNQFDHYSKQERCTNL
Description: Inhibition of electric eel AChE using acetylthiocholine iodide as substrate preincubated for 15 mins followed by substrate addition measured after 20 mins by Ellman's method

Cholinesterase [5] = biological target: T2, Cholinesterase (Equus caballus, UniProt P81908)
T2 sequence (P81908 whole entry): as the sequence (P81908 whole entry) above
Description: Inhibition of equine serum BuChE using butyrylthiocholine iodide as substrate preincubated for 15 mins followed by substrate addition measured after 20 mins by Ellman's method

Cholinesterase [6] = biological target: T2, Cholinesterase; assay: Mixed-type inhibition of equine serum BuChE using butyrylthiocholine iodide as substrate preincubated for 15 mins followed by substrate addition measured after 20 mins by Lineweaver-Burk plot analysis
MCF7 = assay: cells; conditions: Homo sapiens, MCF7, 72 h
Description: Cytotoxicity against human MCF7 cells assessed as reduction in cell viability after 72 hrs by MTT assay

T47D = assay: cells; conditions: Homo sapiens, 72 h
Description: Cytotoxicity against human T47D cells assessed as reduction in cell viability after 72 hrs by MTT assay

MDA-MB-231 = assay: cells; conditions: Homo sapiens, MDA-MB-231, 72 h
Description: Cytotoxicity against human MDA-MB-231 cells assessed as reduction in cell viability after 72 hrs by MTT assay

Acetylcholinesterase [7] = biological target: T1, Acetylcholinesterase; assay: Mixed-type inhibition of electric eel AChE using acetylthiocholine iodide as substrate preincubated for 15 mins followed by substrate addition measured after 20 mins by Lineweaver-Burk plot analysis
PC-12 [8] = assay: Neuroprotective activity against H2O2-induced cell death in rat PC12 cells assessed as cell viability at 50 uM preincubated for 3 hrs followed by H2O2 addition measured after 24 hrs by MTT assay relative to control; format: functional; conditions: read-out: Activity
PC-12 [9] = assay: Neuroprotective activity against H2O2-induced cell death in rat PC12 cells assessed as cell viability at 100 uM preincubated for 3 hrs followed by H2O2 addition measured after 24 hrs by MTT assay relative to control; format: functional; conditions: read-out: Activity
PC-12 [10] = assay: Neuroprotective activity against H2O2-induced cell death in rat PC12 cells assessed as cell viability at 10 uM preincubated for 3 hrs followed by H2O2 addition measured after 24 hrs by MTT assay relative to control; format: functional; conditions: read-out: Activity
Rattus norvegicus [11] = assay: (§1) Reversal of scopolamine-induced memory impairment in Wistar albino rat assessed as decrease in escape latency time during 4 days training period at 5 to 20 mg/kg, ip administered 60 mins prior to test for 4 consecutive days followed by scopolamine challenge 30 mins prior to test by Morris water maze test; format: functional, organism-based
Rattus norvegicus [12] = assay: as §1, with “traveled distance” for “escape latency time”; format: functional, organism-based
Rattus norvegicus [13] = assay: Reversal of scopolamine-induced memory impairment in Wistar albino rat assessed as change in swimming speed during 4 days training period at 5 to 20 mg/kg, ip administered 60 mins prior to test for 4 consecutive days followed by scopolamine challenge 30 mins prior to test by Morris water maze test; format: functional, organism-based
Rattus norvegicus [14] = assay: Reversal of scopolamine-induced memory impairment in Wistar albino rat assessed as increase in time spent in target quadrant at 5 to 20 mg/kg, ip administered for 4 consecutive days 60 mins prior to test followed by scopolamine challenge 30 mins prior to test measured on day 5 by Morris water maze test; format: functional, organism-based

Sequence of Acetylcholinesterase (Electrophorus electricus) (O42275 24-633 limits assumed): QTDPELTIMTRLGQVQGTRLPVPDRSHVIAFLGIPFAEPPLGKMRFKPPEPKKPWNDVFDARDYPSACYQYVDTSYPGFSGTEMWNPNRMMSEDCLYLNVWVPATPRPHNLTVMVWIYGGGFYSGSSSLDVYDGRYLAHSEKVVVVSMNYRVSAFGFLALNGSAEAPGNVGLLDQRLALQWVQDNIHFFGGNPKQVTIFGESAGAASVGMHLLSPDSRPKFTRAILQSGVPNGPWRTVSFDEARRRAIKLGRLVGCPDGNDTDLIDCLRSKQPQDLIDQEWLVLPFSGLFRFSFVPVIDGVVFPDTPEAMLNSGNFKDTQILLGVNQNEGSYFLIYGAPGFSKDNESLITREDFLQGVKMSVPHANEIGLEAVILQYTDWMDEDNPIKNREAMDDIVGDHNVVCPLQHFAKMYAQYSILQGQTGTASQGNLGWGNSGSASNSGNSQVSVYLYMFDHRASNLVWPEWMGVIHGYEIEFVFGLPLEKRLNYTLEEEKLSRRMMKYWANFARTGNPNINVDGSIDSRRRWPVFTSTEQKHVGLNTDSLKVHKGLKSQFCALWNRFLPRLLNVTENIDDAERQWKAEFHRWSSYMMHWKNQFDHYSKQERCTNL

In the case of `Clc1ccc(Cn2cc(CNc3c4c(nc5ccccc35)CCCC4)nn2)cc1`, the Ratio IC50 [1] is reported as 3 to 21, the Ratio IC50 [2] is reported as 2 to 140 and the Activity [3] is reported as “inactive”. For the same compound, the IC50 (Acetylcholinesterase [4]) was 1970 nM and the IC50 (Cholinesterase [5]) was 151 nM.

Compound `COc1ccc(Cn2cc(CNc3c4c(nc5ccccc35)CCCC4)nn2)cc1` has a Ratio IC50 [1] of 3 to 21, a Ratio IC50 [2] of 2 to 140 and a Ki (Cholinesterase [6]) of 121 nM. The IC50 (Acetylcholinesterase [4]) was 2000 nM, the IC50 (Cholinesterase [5]) was 55 nM and the IC50 (MCF7) was greater than 100000 nM. For the same compound, the IC50 (T47D) was 94100 nM and the IC50 (MDA-MB-231) was greater than 100000 nM.

Compound `c1ccc(Cn2cc(CNc3c4c(nc5ccccc35)CCCC4)nn2)cc1` has a Ratio IC50 [1] of 3 to 21, a Ratio IC50 [2] of 2 to 140 and an IC50 (Acetylcholinesterase [4]) of 3300 nM. For the same compound, the IC50 (Cholinesterase [5]) was 180 nM, the IC50 (MCF7) was 97100 nM and the IC50 (T47D) was 62900 nM. For the same compound, the IC50 (MDA-MB-231) was 81400 nM.

For `COc1ccc(Cn2cc(CNc3c4c(nc5ccc(Cl)cc35)CCCC4)nn2)cc1`, the Ratio IC50 [1] was 3 to 21, the Ratio IC50 [2] was 2 to 140 and the Ki (Acetylcholinesterase [7]) was 940 nM. The Activity [3] was “inactive”, the viability at 50 µM (PC-12 [8]) was 73.5% and the viability at 100 µM (PC-12 [9]) was 74.8%. The viability at 10 µM (PC-12 [10]) was 65.4%, the Activity (Rattus norvegicus [11]) was “Active” and the Activity (Rattus norvegicus [12]) was “Active”. For the same compound, the Activity (Rattus norvegicus [13]) was “inactive”, the Activity (Rattus norvegicus [14]) was “Active” and the IC50 (Acetylcholinesterase [4]) was 521 nM. The IC50 (Cholinesterase [5]) was 1850 nM, the IC50 (MCF7) was greater than 100000 nM and the IC50 (T47D) was greater than 100000 nM. The IC50 (MDA-MB-231) was greater than 100000 nM.

In the case of `Cc1ccc(Cn2cc(CNc3c4c(nc5ccc(Cl)cc35)CCCC4)nn2)cc1`, the Ratio IC50 [1] is reported as 3 to 21, the Ratio IC50 [2] is reported as 2 to 140 and the Activity [3] is reported as “inactive”. For the same compound, the IC50 (Acetylcholinesterase [4]) was 768 nM and the IC50 (Cholinesterase [5]) was 747 nM.

For `Cc1ccc(Cn2cc(CNc3c4c(nc5ccccc35)CCCC4)nn2)cc1`, the Ratio IC50 [1] was 3 to 21, the Ratio IC50 [2] was 2 to 140 and the IC50 (Acetylcholinesterase [4]) was 621 nM. For the same compound, the IC50 (Cholinesterase [5]) was 72 nM.

Compound `COc1ccc(Cn2cc(CNc3c4c(nc5cc(Cl)ccc35)CCCC4)nn2)cc1` has a Ratio IC50 [1] of 3 to 21, a Ratio IC50 [2] of 2 to 140 and an IC50 (Acetylcholinesterase [4]) of 737 nM. For the same compound, the IC50 (Cholinesterase [5]) was 115 nM.

Compound `Clc1ccc(Cn2cc(CNc3c4c(nc5ccc(Cl)cc35)CCCC4)nn2)cc1` has a Ratio IC50 [1] of 3 to 21, a Ratio IC50 [2] of 2 to 140 and an IC50 (Acetylcholinesterase [4]) of 1960 nM. The IC50 (Cholinesterase [5]) was 3940 nM.

`Cc1ccc(Cn2cc(CNc3c4c(nc5cc(Cl)ccc35)CCCC4)nn2)cc1` showed a Ratio IC50 [1] of 3 to 21, a Ratio IC50 [2] of 2 to 140 and an IC50 (Acetylcholinesterase [4]) of 1110 nM. It also gave an IC50 (Cholinesterase [5]) of 65 nM.

With `Fc1ccc(Cn2cc(CNc3c4c(nc5cc(Cl)ccc35)CCCC4)nn2)cc1` the Ratio IC50 [1] was 3 to 21, the Ratio IC50 [2] was 2 to 140 and the IC50 (Acetylcholinesterase [4]) was 2280 nM. The IC50 (Cholinesterase [5]) was 216 nM, the IC50 (MCF7) was 87500 nM and the IC50 (T47D) was 80000 nM. For the same compound, the IC50 (MDA-MB-231) was 83400 nM.

With `Clc1ccc2nc3c(c(NCc4cn(Cc5ccccc5)nn4)c2c1)CCCC3` the Ratio IC50 [1] was 3 to 21, the Ratio IC50 [2] was 2 to 140 and the IC50 (Acetylcholinesterase [4]) was 2390 nM. For the same compound, the IC50 (Cholinesterase [5]) was greater than 5000 nM.

With `Clc1ccc2c(NCc3cn(Cc4ccccc4)nn3)c3c(nc2c1)CCCC3` the Ratio IC50 [1] was 3 to 21, the Ratio IC50 [2] was 2 to 140 and the IC50 (Acetylcholinesterase [4]) was 2320 nM. It also gave an IC50 (Cholinesterase [5]) of 197 nM, an IC50 (MCF7) greater than 100000 nM and an IC50 (T47D) of 97300 nM. For the same compound, the IC50 (MDA-MB-231) was greater than 100000 nM.

With `Fc1ccc(Cn2cc(CNc3c4c(nc5ccc(Cl)cc35)CCCC4)nn2)cc1` the Ratio IC50 [1] was 3 to 21, the Ratio IC50 [2] was 2 to 140 and the IC50 (Acetylcholinesterase [4]) was 1440 nM. The IC50 (Cholinesterase [5]) was 721 nM.

For `Clc1ccc(Cn2cc(CNc3c4c(nc5cc(Cl)ccc35)CCCC4)nn2)cc1`, the Ratio IC50 [1] was 3 to 21, the Ratio IC50 [2] was 2 to 140 and the IC50 (Acetylcholinesterase [4]) was 983 nM. It also gave an IC50 (Cholinesterase [5]) greater than 5000 nM.

Compound `Fc1ccc(Cn2cc(CNc3c4c(nc5ccccc35)CCCC4)nn2)cc1` has a Ratio IC50 [1] of 3 to 21, a Ratio IC50 [2] of 2 to 140 and an IC50 (Acetylcholinesterase [4]) of 2380 nM. For the same compound, the IC50 (Cholinesterase [5]) was 59 nM, the IC50 (MCF7) was greater than 100000 nM and the IC50 (T47D) was greater than 100000 nM. It also gave an IC50 (MDA-MB-231) greater than 100000 nM.
